{"source": "patent US6194173A", "about": "“Binding proteins for phosphoinositides, GRP1 or general receptor 1 for phophoinositide” (priority 1999, dated 2001)", "key": {"PH domain of GRP [1]": {"molecular_target": "T1, PH domain of GRP (Mus musculus, UniProt O08967)", "T1 sequence (O08967 239-399)": "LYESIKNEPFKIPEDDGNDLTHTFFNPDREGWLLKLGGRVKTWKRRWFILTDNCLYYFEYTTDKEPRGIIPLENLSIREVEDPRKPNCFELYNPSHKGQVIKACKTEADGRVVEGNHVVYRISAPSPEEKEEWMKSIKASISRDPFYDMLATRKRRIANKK", "assay": "Competition for [3H]dioctanoyl PtdIns(3,4,5)P3 binding to the PH domain of GRP", "set-up": "GST fused to the PH region of GRP (amino acids 239-399); made in house; host or cells: bacteria", "conditions": "competition for [^3 H]dioctanoyl PtdIns(3,4,5)P3", "description": "Binding assays were performed as described in (Rameh, L. E. et al., J. Biol. Chem., In Press). Briefly, GST fused to the PH region of GRP (amino acids 239-399) was bound to glutathione immobilized on agarose beads (Sigma). Synthetic [^3 H]-labeled diotanoyl PtdIns(3,4,5)P3 was added, and after one hour the beads were separated from the supernatant by centrifugation. The amount of [^3 H]-PtdIns(3,4,5)P3 bound to the PH domain was calculated by subtracting the amount of free [^3 H] present in supernatants from GST-GRP from the amount of free [^3 H] in supernatants from control GST. The data was fitted to the equation [bound]=Bmax×[free]/(KD + [free]) by least squares curve fit. For the competition assays the beads containing the GST-fusion proteins were incubated with 2.5 μM[^3 H]-labeled dioctanoyl PtdIns(3,4,5)P3 bound was calculated based on the amount of [^3 H] bound to the beads in the absence of competitor. The total [^3 H] bound to the GST control was less then 0.5% of the total [^3 H] bound to GRP PH domain. The data was fitted to the equation % bound=100-n×L/Klapp +L) where n is the % specific binding, L is the concentration of unlabeled lipid added and Klapp is the apparent competitive dissociation constant. The rations of the apparent dissociation constants accurately reflect the ratios of the true dissociation constants under the present experimental conditions (Rameh, L. E. et al., J. Biol. Chem., In Press).\nThe data depicted in FIG. 8 indicate that receptor signaling through PI3-kinases, which generates PtdIns(3,4,5)P3, may specifically regulate ARF proteins through GRP. In order to further test this, the relative binding affinities of PtdIns(3,4,5)P3 versus PtdIns (4,5)P2, which is constitutively present in cell membranes, for the PH domain of GRP were determined. A GST fusion protein of the PH domain of GRP was incubated with various concentrations of synthetic [^3 H]dioctanoyl PtdIns(3,4,5)P3 and binding was determined (FIG. 9A). These experiments show high affinity binding of this polyphosphoinositide,with a calculated Kd=0.5 μM."}, "PH domain of GRP [2]": {"molecular_target": "T1, PH domain of GRP", "assay": "Binding specificity of the GRP PH domain for 32P-labeled phosphoinositides (GST-PH on nitrocellulose)", "set-up": "species or system murine", "conditions": "GST-PH, 25,000 cpm lipid; relative to GST", "description": "The 3'-phosphatidylinositol probes labeled at the 3' position were generated using GST-p110 PI3-kinase purified from recombinant bacculovirus infected Sf 9 cells, using either purified phosphatidylinositol phosphates or crude brain lipid. Briefly, 20 mg phospholipid in chloroform was dried under N2 and resuspended in […] of buffer containing Tris-HCl pH 7.4, EDTA 1 mM and incubated in […] phopsphorylation media containing 20 mM Tris-HCl pH 7.4, 100 mM NaCl, 10 mM MgCl2, 0.5 mM EGTA. 0.2 mM adenosine, GST-p110 and 5-10 mCi [g-^32 P]ATP (5 Ci/umol). The reaction was carried out for 2 h at room temperature, quenched by addition of 0.2 ml of 1M HCl, followed by 0.5 ml of chloroform:methanol (1:1). The organic phase containing phospholipids was washed 4 times with 0.4 ml of methanol:HCl (1: 1) and stored at -70° C. until use. Just before use, the lipid was dried under a stream of nitrogen with phosphatidyl serine corresponding to a final concentration of 20 mg/ml. The identities of the PI3-P, PI3,4-P2 and PI3,4,5-P3 were confirmed by TLC and HPLC analysis.\nTo generate the GST fusion proteins, PCR reactions using the primers: […] (SEQ ID NO:9) and […] (SEQ ID NO:10) for the GST-N construct, […] (SEQ ID NO:11) and […] (SEQ ID NO:12) for the GST-Sec7 construct, […] (SEQ ID NO:13) and […] (SEQ ID NO:14) for the GSTPH construct, and […] […] The filters were washed four times with 1 mL assay buffer and counted in a scintillation counter.\nIn order to determine whether PI(3,4,5)P3 binding could be localized to specific sequences within the GRP structure, GST fusion proteins containing either residues 239 to 399 (PH domain), residues 52 to 260 (Sec7 domain), or residues 5 to 71, full length GRP residues 5-399 were expressed in bacteria and purified on glutathione-conjugated beads. […] 150 pmol of the proteins were spotted on nitrocellulose filters, incubated with [^32 P]PI(3,4,5)P3 and the amount of bound lipid was determined as described. […] Nitrocellulose filters with GST-PH were incubated with 25,000 cpm of each of the phospholipids and the amount of bound lipid determined as described above. […]"}}, "data": [{"substance": "Phosphatidylinositol (3,4,5)-Trisphosphate [PtdIns(3,4,5)P3]", "values": [{"measurement": "KI(app), fold lower than for PtdIns(4,5)P2", "setting": "PH domain of GRP [1]", "value": "10-20 fold"}, {"measurement": "binding of labeled phosphoinositide to the GRP PH domain", "setting": "PH domain of GRP [2]", "value": "specifically"}]}]}
